From patent publication US20070117743A1, “New antitumoral compounds” (priority 2003, published 2007)
Where two headings read alike, the source gives them in different places. Where a SMILES comes first, the peptide text is derived from it. Bridges are numbered along the chain shown (N, C = ends). [ ]: non-standard residue; d: D form. The star is where a group is joined. Hexanoyl(4S-Me) = CC[C@H](C)CCC(=O)*; d(aIle) = CC[C@H](C)[C@@H](N)C(=O)O; d(aThr) = C[C@@H](O)[C@@H](N)C(=O)O; dTic = O=C(O)[C@H]1Cc2ccccc2CN1; Orn = NCCC[C@H](N)C(=O)O; Dhb = C/C=C(\N)C(=O)O

How the values were obtained:
Format in all cases: cell-based, human
K-562 = assay: SRB colorimetric assay of cell growth and viability, K-562; conditions: K-562, 48 hours exposure; for CC50: read-out: LC50 K-562
IGROV-1 = assay: SRB colorimetric assay of cell growth and viability, IGROV-1; conditions: 48 hours exposure
SK-MEL-28 = assay: SRB colorimetric assay of cell growth and viability, SK-MEL-28; conditions: 48 hours exposure; for CC50: read-out: LC50 MEL-28
A-549 = assay: SRB colorimetric assay of cell growth and viability, A-549; conditions: A-549, 48 hours exposure; for GI50: read-out: GI50 A-549; for CC50: read-out: LC50 A-549
LoVo = assay: SRB colorimetric assay of cell growth and viability, LoVo; conditions: LOVO, 48 hours exposure; for CC50: read-out: LC50 LOVO
IGROV-ET = assay: SRB colorimetric assay of cell growth and viability, IGROV-ET; conditions: 48 hours exposure; for CC50: read-out: LC50 IGROV-ET
HT-29 = assay: SRB colorimetric assay of cell growth and viability, HT-29; conditions: HT-29, 48 hours exposure; for GI50: read-out: GI50 HT-29; for CC50: read-out: LC50 HT-29
LoVo-Dox = assay: SRB colorimetric assay of cell growth and viability, LoVo-Dox; conditions: LOVO-DOX, 48 hours exposure; for CC50: read-out: LC50 LOVO-DOX
Method in brief: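 Here, cells grow drug-free for 18 h, then receive sample dilutions from 10 down to 10^−8 μg/mL for 48 h at 37° C. Protein-bound SRB is solubilized in Tris and quantified at 490 nm.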

DU-145 = assay: SRB colorimetric assay of cell growth and viability, DU-145; conditions: 48 hours exposure
HeLa = assay: SRB colorimetric assay of cell growth and viability, HeLa; conditions: HELA, 48 hours exposure; for CC50: read-out: LC50 HELA
PANC-1 = assay: SRB colorimetric assay of cell growth and viability, PANC-1; conditions: PANC-1, 48 hours exposure; for CC50: read-out: LC50 PANC-1
LNCaP = assay: SRB colorimetric assay of cell growth and viability, LNCaP; conditions: 48 hours exposure, SRB; for GI50: read-out: GI50 LN-caP; for CC50: read-out: LC50 LN-caP
Text: The finality of this assay is to interrupt the growth of a “in vitro” tumor cell culture by means a continued exhibition of the cells to the sample to be testing.
This form of the assay employs 96 well cell culture microplates of 9 mm diameter (Faircloth, 1988; Mosmann, 1983). Most of the cell lines are obtained from American Type Culture Collection (ATCC) derived from different human cancer types.
Cells are maintained in RPMI 1640 10% FBS, supplemented with 0.1 g/l penicillin and 0.1 g/l streptomycin sulfate and then incubated at 37° C., 5% CO2 and 98% humidity. For the experiments, cells were harvested from subconfluent cultures using trypsin and resuspended in fresh medium before plating.
Cells are seeded in 96 well microtiter plates, at 5×10^3 cells per well in aliquots of 195 μL medium, and they are allowed to attach to the plate surface by growing in drug free medium for 18 hours. Afterward, samples are added in aliquots of 5 μL in a ranging from 10 to 10^−8 μg/mL, dissolved in DMSO:EtOH:PBS (0.5:0.5:99). After 48 hours exposure, the antitumor effect are measured by the SRB methodology: cells are fixed by adding 50 μL of cold 50% (wt/vol) trichloroacetic acid (TCA) and incubating for 60 minutes at 4° C. Plates are washed with deionized water and dried. One hundred μL of SRB solution (0.4% wt/vol in 1% acetic acid) is added to each microtiter well and incubated for 10 minutes at room temperature. Unbound SRB is removed by washing with 1% acetic acid. Plates are air dried and bound stain is solubilized with Tris buffer. Optical densities are read on a automated spectrophotometric plate reader at a single wavelength of 490 nm.
The values for mean+/− SD of data from triplicate wells are calculated. Some parameters for cellular responses can be calculated: GI=growth inhibition, TGI=total growth inhibition (cytostatic effect) and LC=cell killing (cytotoxic effect).

HeLa-APL = assay: SRB colorimetric assay of cell growth and viability, HeLa-APL; conditions: HELA-APL, 48 hours exposure; for CC50: read-out: LC50 HELA-APL
SK-BR-3 = assay: SRB colorimetric assay of cell growth and viability, SK-BR-3; conditions: SK-BR-3; 48 hours exposure

| Structure (SMILES) | GI50 (K-562) | TGI K-562 (K-562) | CC50 (K-562) | TGI A-549 (A-549) | GI50 (A-549) | CC50 (A-549) | GI50 (LoVo) | TGI LOVO (LoVo) | CC50 (LoVo) | TGI HT-29 (HT-29) | GI50 (HT-29) | CC50 (HT-29) | GI50 (LoVo-Dox) | TGI LOVO-DOX (LoVo-Dox) | CC50 (LoVo-Dox) | GI50 (HeLa) | TGI HELA (HeLa) | CC50 (HeLa) | GI50 (PANC-1) | TGI PANC-1 (PANC-1) | further results |
| --- | --- | --- | --- | --- | --- | --- | --- | --- | --- | --- | --- | --- | --- | --- | --- | --- | --- | --- | --- | --- | --- |
| C/C=C1\NC(=O)[C@H](Cc2ccccc2)NC(=O)[C@@H](C(C)C)NC(=O)[C@@H]([C@@H](C)CC)NC(=O)[C@H](NC(=O)[C@H](NC(=O)[C@H](CCCN)NC(=O)[C@H]2Cc3ccccc3CN2C(=O)[C@H](NC(=O)[C@@H](NC(=O)[C@@H](NC(=O)[C@H](NC(=O)CC[C@@H](C)CC)C(C)C)[C@@H](C)O)C(C)C)C(C)C)[C@@H](C)CC)[C@@H](C)OC(=O)[C@H](C(C)C)NC1=O [Compound 61, [D-Tic^9, (4S)-MeHex^14]-KF] ({Hexanoyl(4S-Me)}-[dV]TV[dV][dTic][Orn][d(aIle)][d(aThr)][d(aIle)][dV]F[Dhb]V; ester 8-C) | ≥ 6490 nM | 6.49E−06 Molar | ≥ 6490 nM | 6.49E−06 Molar | 2870 nM | ≥ 6490 nM | 1200 nM | 2.65E−06 Molar | 5830 nM | 2.25E−06 Molar | 1180 nM | 4260 nM | 1170 nM | 2.71E−06 Molar | 6280 nM | 3480 nM | 6.49E−06 Molar | ≥ 6490 nM | ≥ 6490 nM | 6.49E−06 Molar | GI50 (IGROV-1; SRB): 1360 nM; LC50 (concentration causing 50% net cell killing) (IGROV-1; SRB): 5980 nM; TGI IGROV (IGROV-1; SRB): 2.86E−06 Molar; GI50 (SK-MEL-28; SRB): 3790 nM; TGI MEL-28 (SK-MEL-28; SRB): 6.49E−06 Molar; CC50 (SK-MEL-28; SRB): ≥ 6490 nM; GI50 (IGROV-ET; SRB): 1440 nM; TGI IGROV-ET (IGROV-ET; SRB): 3.30E−06 Molar; CC50 (IGROV-ET; SRB): ≥ 6490 nM; GI50 (DU-145; SRB): 1720 nM; LC50 (concentration causing 50% net cell kill) (DU-145; SRB): ≥ 6490 nM; TGI DU-145 (DU-145; SRB): 4.24E−06 Molar; CC50 (PANC-1): ≥ 6490 nM; TGI LN-caP (LNCaP): 2.40E−06 Molar; GI50 (LNCaP): 921 nM; CC50 (LNCaP): 6260 nM; GI50 (HeLa-APL): 4930 nM; TGI HELA-APL (HeLa-APL): 6.49E−06 Molar; CC50 (HeLa-APL): ≥ 6490 nM |
| C/C=C1\NC(=O)[C@H](Cc2ccccc2)NC(=O)[C@@H](C(C)C)NC(=O)[C@@H]([C@@H](C)CC)NC(=O)[C@H](NC(=O)[C@H](NC(=O)[C@H](CCCN)NC(=O)[C@H]2CCCCN2C(=O)[C@H](NC(=O)[C@@H](NC(=O)[C@@H](NC(=O)[C@H](NC(=O)CC[C@@H](C)CC)C(C)C)[C@@H](C)O)C(C)C)C(C)C)[C@@H](C)CC)[C@@H](C)OC(=O)[C@H](C(C)C)NC1=O [Compound 60, [D-Pip^9, (4S)-MeHex^14]-KF] | 5300 nM | 6.70E−06 Molar | 6700 nM | 3.66E−06 Molar | 1610 nM | 6700 nM | 1030 nM | 2.44E−06 Molar | 5770 nM | 2.16E−06 Molar | 1040 nM | 4470 nM | 624 nM | 1.98E−06 Molar | 6140 nM | 3150 nM | 6.70E−06 Molar | 6700 nM | 6700 nM | 6.70E−06 Molar | GI50 (IGROV-1; SRB): 1240 nM; LC50 (concentration causing 50% net cell killing) (IGROV-1; SRB): 6280 nM; TGI IGROV (IGROV-1; SRB): 2.79E−06 Molar; GI50 (SK-MEL-28; SRB): 1660 nM; TGI MEL-28 (SK-MEL-28; SRB): 3.07E−06 Molar; CC50 (SK-MEL-28; SRB): 5680 nM; GI50 (IGROV-ET; SRB): 1210 nM; TGI IGROV-ET (IGROV-ET; SRB): 2.68E−06 Molar; CC50 (IGROV-ET; SRB): 5950 nM; GI50 (DU-145; SRB): 1640 nM; LC50 (concentration causing 50% net cell kill) (DU-145; SRB): 6160 nM; TGI DU-145 (DU-145; SRB): 3.17E−06 Molar; CC50 (PANC-1): 6700 nM; TGI LN-caP (LNCaP): 2.59E−06 Molar; GI50 (LNCaP): 1230 nM; CC50 (LNCaP): 5430 nM; GI50 (HeLa-APL): 2050 nM; TGI HELA-APL (HeLa-APL): 4.42E−06 Molar; CC50 (HeLa-APL): 6700 nM |
| C/C=C1\NC(=O)[C@H](Cc2ccc(F)c(F)c2)NC(=O)[C@@H](C(C)C)NC(=O)[C@@H]([C@@H](C)CC)NC(=O)[C@H](NC(=O)[C@H](NC(=O)[C@H](CCCN)NC(=O)[C@H]2CCCN2C(=O)[C@H](NC(=O)[C@@H](NC(=O)[C@@H](NC(=O)[C@H](NC(=O)CCCC(C)C)C(C)C)[C@@H](C)O)C(C)C)C(C)C)[C@@H](C)CC)[C@@H](C)OC(=O)[C@H](C(C)C)NC1=O [Compound 84, [Phe(3,4-F2)^3]-KF] | 560 nM | 9.28E−07 Molar | 1420 nM | 3.96E−07 Molar | 224 nM | 848 nM | 31.7 nM | 7.25E−08 Molar | 150 nM | 9.77E−08 Molar | 62.7 nM | 152 nM | 32.3 nM | 6.88E−08 Molar | 176 nM | 70.6 nM | 2.17E−07 Molar | 451 nM | 725 nM | 1.17E−06 Molar | GI50 (IGROV-1; IGROV): 47.2 nM; LC50 (concentration causing 50% net cell killing) (IGROV-1; IGROV): 155 nM; TGI IGROV (IGROV-1; IGROV): 9.40E−08 Molar; GI50 (SK-MEL-28; MEL-28): 224 nM; TGI MEL-28 (SK-MEL-28; MEL-28): 3.55E−07 Molar; CC50 (SK-MEL-28; MEL-28): 561 nM; GI50 (IGROV-ET; IGROV-ET): 65.1 nM; TGI IGROV-ET (IGROV-ET; IGROV-ET): 1.16E−07 Molar; CC50 (IGROV-ET; IGROV-ET): 343 nM; GI50 (DU-145; DU-145): 111 nM; LC50 (concentration causing 50% net cell kill) (DU-145; DU-145): 463 nM; TGI DU-145 (DU-145; DU-145): 2.54E−07 Molar; CC50 (PANC-1): 1840 nM; GI50 (SK-BR-3): 27.3 nM; LC50 (SK-BR-3): 136 nM; TGI SK-BR-3 (SK-BR-3): 5.34E−08 Molar; GI50 (HeLa-APL): 117 nM; TGI HELA-APL (HeLa-APL): 2.49E−07 Molar; CC50 (HeLa-APL): 467 nM |
